This note sets out measurements from publication PMC6934184, “Selective DNA-PKcs inhibition extends the therapeutic index of localized radiotherapy and chemotherapy” (The Journal of Clinical Investigation, 2019).

The target in this assay is T1, NUAK1 (ARK5) (Homo sapiens, UniProt O60285).
T1 construct: purchased Thermo Fisher Scientific (Life Technologies) SelectScreen
The assay is described as follows: SelectScreen Adapta. The format is biochemical. As for the experimental part: The in vitro kinase selectivity of NU5455 was determined using the SelectScreen Broad Assay Panel (Thermo Fisher Scientific) involving activity and binding assays (Supplemental Table 1). […] Class IA PI3Ks were measured using the p85α subunit.
Kinase [ATP] % Assay Kinase [ATP] % Assay Kinase [ATP] % Assay Kinase [ATP] % Assay […]
SNF1LK2 Km app 26.6 Z MINK1 Km app 4.6 Z NUAK1 (ARK5) Km app 1.2 A AMPK (A2/B2/G2) n/a -2.6 L […]
SGK (SGK1) Km app 8.5 Z MAP4K2 (GCK) Km app 2.7 Z TLK2 n/a -0.3 L STK38 (NDR) n/a -5.9 L
MERTK (cMER) Km app 8.3 Z CDK2/cyclin A Km app 2.7 Z TGFBR1 (ALK5) n/a -0.4 L MATK (HYL) Km app -6.3 Z
FYN Km app 8.3 Z EPHA1 Km app 2.7 Z CLK3 Km app -0.5 Z ABL1 E255K Km app -6.6 Z
TEC n/a 8.1 L CDK2/cyclin E1 n/a 2.7 L MAP3K14 (NIK) n/a -0.5 L STK17A (DRAK1) n/a -6.6 L
KIT V654A n/a 8.1 L TESK2 n/a 2.7 L AKT3 (PKB gamma) Km app -0.5 Z JAK2 JH1 JH2 Km app -6.7 Z
ROS1 Km app 8.0 Z SPHK1 Km app 2.7 A MAP3K9 (MLK1) Km app -0.5 Z PRKACB (PRKAC beta) n/a -6.8 L
FGFR3 K650E Km app 7.9 Z AMPK A2/B1/G1 Km app 2.6 Z IKBKB (IKK beta) Km app -0.6 Z PDGFRA (PDGFR alpha) Km app -6.8 Z
RAF1 (cRAF) Y340D Y341D 100 7.9 Z DYRK3 Km app 2.6 Z CAMK2A (CaMKII alpha) Km app -0.6 Z NEK9 Km app -7.2 Z
PI4KA (PI4K alpha) 10 7.8 A CSNK1D (CK1 delta) Km app 2.6 Z PRKCB1 (PKC beta I) Km app -0.7 Z PDK1 Km app -7.3 Z
HIPK2 Km app 7.8 Z ACVR2A n/a 2.5 L TTK n/a -0.7 L RPS6KB1 (p70S6K) Km app -7.8 Z […]

What is called inhibition is how much of the control response was suppressed. Read a high inhibition as a strong effect.

T1 sequence (O60285 whole entry): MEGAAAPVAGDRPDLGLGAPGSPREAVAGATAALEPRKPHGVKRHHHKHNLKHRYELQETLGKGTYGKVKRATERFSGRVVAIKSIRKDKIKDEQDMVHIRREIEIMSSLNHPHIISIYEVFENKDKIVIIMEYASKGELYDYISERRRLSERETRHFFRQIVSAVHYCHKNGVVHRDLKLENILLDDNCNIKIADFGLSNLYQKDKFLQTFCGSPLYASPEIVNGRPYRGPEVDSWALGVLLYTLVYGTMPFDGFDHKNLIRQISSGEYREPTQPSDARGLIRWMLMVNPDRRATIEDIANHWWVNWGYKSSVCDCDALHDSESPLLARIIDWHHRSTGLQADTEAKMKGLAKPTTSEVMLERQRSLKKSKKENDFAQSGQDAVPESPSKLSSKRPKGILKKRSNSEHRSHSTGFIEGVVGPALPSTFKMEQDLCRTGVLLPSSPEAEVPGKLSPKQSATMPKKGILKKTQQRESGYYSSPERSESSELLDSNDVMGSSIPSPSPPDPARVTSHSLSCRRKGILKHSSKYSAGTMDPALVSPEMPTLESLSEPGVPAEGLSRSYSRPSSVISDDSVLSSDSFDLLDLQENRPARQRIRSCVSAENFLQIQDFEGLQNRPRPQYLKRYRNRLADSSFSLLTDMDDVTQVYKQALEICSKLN

Compound `CN(C(=O)CN1CCOCC1)c1ccc2sc3c(-c4cccc5c(=O)cc(N6CC7CCC(C6)O7)oc45)cccc3c2c1` [NU5455] registered an inhibition at 1 µM of 1.2%.
